Experimental data reported in US5672609A, “Pyridine compounds, intermediates compositions and methods of use” (Eli Lilly and Company, priority 1996, dated 1997).
“And” between values parts separate entries of the source, which are not always exact repeats. Identical values can stand only once.

Experiments:
[1] = system: Serum cholesterol; experiment: Serum cholesterol in ovariectomized rats, 4-day oral dosing (Table 1); type: in vivo, female Sprague Dawley rats; details: OVX rats
Text: (§1) Seventy-five day old female Sprague Dawley rats (weight range of 200 to 225 g) were obtained from Charles River Laboratories (Portage, Mich.). The animals were either bilaterally ovariectomized (OVX) or exposed to a sham surgical procedure at Charles River Laboratories, and then shipped after one week. Upon arrival, they were housed in metal hanging cages in groups of 3 or 4 per cage and had ad libitum access to food (calcium content approximately 0.5%) and water for one week. Room temperature was maintained at 22.2° ±1.7° C. with a minimum relative humidity of 40%. The photoperiod in the room was 12 hours light and 12 hours dark.
(§2) Dosing Regimen Tissue Collection. After a one week acclimation period (therefore, two weeks post-OVX) daily dosing with test compound was initiated. 17α-ethynyl estradiol or the test compound were given orally, unless otherwise stated, as a suspension in 1% carboxymethylcellulose or dissolved in 20% cyclodextrin. Animals were dosed daily for 4 days. Following the dosing regimen, animals were weighed and anesthetized with a ketamine: Xylazine (2:1, V:V) mixture and a blood sample was collected by cardiac puncture. The animals were then sacrificed by asphyxiation with CO2, the uterus was removed through a midline incision, and a wet uterine weight was determined.
(§3) Cholesterol Analysis. Blood samples were allowed to clot at room temperature for 2 hours, and serum was obtained following centrifugation for 10 minutes at 3000 rpm. Serum cholesterol was determined using a Boehringer Mannheim Diagnostics high performance cholesterol assay. Briefly the cholesterol was oxidized to cholest-4-en-3-one and hydrogen peroxide. The hydrogen peroxide was then reacted with phenol and 4-aminophenazone in the presence of peroxidase to produce a p-quinone imine dye, which was read spectrophotometrically at 500 nm. Cholesterol concentration was then calculated against a standard curve. The entire assay was automated using a Biomek Automated Workstation.
(§4) Data presented in Table 1 below show comparative results among ovariectomized rats, rats treated with 17α-ethynyl estradiol (EE2; an orally available form of estrogen), and rats treated with certain compounds of the present invention. […] This uterine response to estrogen is well recognized in the art.
(§5) The data presented in Table 1 below reflects the response of 5 to 6 rats per treatment.

[2] = system: Femur (distal metaphysis); experiment: Osteoporosis Test: distal femur metaphysis x-ray image / bone density (Table 2); type: in vivo, rats; details: for Femur (x-ray image) (% protect.): daily for 35 days, 6-month-old rats; for bone density, in words: ovariectomized rats, oral, 35 days
Experimental: Following the General Preparation Procedure, infra, the rats were treated daily for 35 days (6 rats per treatment group) and sacrificed by carbon dioxide asphyxiation on the 36th day. The 35 day time period was sufficient to allow maximal reduction in bone density, measured as described herein. At the time of sacrifice, the uteri were removed, dissected free of extraneous tissue, and the fluid contents were expelled before determination of wet weight in order to confirm estrogen deficiency associated with complete ovariectomy. […] The right femurs were excised and digitilized x-rays generated and analyzed by an image analysis program (NIH image) at the distal metaphysis. The proximal aspect of the tibiae from these animals were also scanned by quantitative computed tomography. In accordance with the above procedures, the compound of Example 9 and ethynyl estradiol (EE2) in 20% hydroxypropyl β-cyclodextrin were orally administered to test animals. Distal femur metaphysis data presented in Tables 2 and 3 below are the results of compound treatments compared to intact and ovariectomized test animals. The rats in the Table 2 tests were 6 months of age rather than 75 days of age (at the beginning of the tests).

[3] = system: uterus; experiment: Osteoporosis Test: uterine weight (Table 2); type: in vivo; details: daily for 35 days, 6-month-old rats
Experimental: (§6) Following the General Preparation Procedure, infra, the rats were treated daily for 35 days (6 rats per treatment group) and sacrificed by carbon dioxide asphyxiation on the 36th day. The 35 day time period was sufficient to allow maximal reduction in bone density, measured as described herein. At the time of sacrifice, the uteri were removed, dissected free of extraneous tissue, and the fluid contents were expelled before determination of wet weight in order to confirm estrogen deficiency associated with complete ovariectomy. […] In accordance with the above procedures, the compound of Example 9 and ethynyl estradiol (EE2) in 20% hydroxypropyl β-cyclodextrin were orally administered to test animals. Distal femur metaphysis data presented in Tables 2 and 3 below are the results of compound treatments compared to intact and ovariectomized test animals. The rats in the Table 2 tests were 6 months of age rather than 75 days of age (at the beginning of the tests).

[4] = system: uterus; experiment: Uterine weight in ovariectomized rats, 4-day oral dosing (Table 1); type: in vivo, female Sprague Dawley rats; details: OVX rats
Experimental: In the examples illustrating the methods, a post-menopausal model was used in which effects of different treatments upon circulating lipids were determined.
as §1, §2, §4, §5

[5] = system: Serum cholesterol; experiment: Osteoporosis Test: serum cholesterol (Table 2); type: in vivo; details: daily for 35 days, 6-month-old rats
Experimental: as §3
Following the General Preparation Procedure, infra, the rats were treated daily for 35 days (6 rats per treatment group) and sacrificed by carbon dioxide asphyxiation on the 36th day. The 35 day time period was sufficient to allow maximal reduction in bone density, measured as described herein. At the time of sacrifice, the uteri were removed, dissected free of extraneous tissue, and the fluid contents were expelled before determination of wet weight in order to confirm estrogen deficiency associated with complete ovariectomy.
In accordance with the above procedures, the compound of Example 9 and ethynyl estradiol (EE2) in 20% hydroxypropyl β-cyclodextrin were orally administered to test animals. Distal femur metaphysis data presented in Tables 2 and 3 below are the results of compound treatments compared to intact and ovariectomized test animals. The rats in the Table 2 tests were 6 months of age rather than 75 days of age (at the beginning of the tests).

[6] = system: Uterine Eosinophil Peroxidase (EPO); experiment: Uterine Eosinophil Peroxidase (EPO) Assay (Table 1); type: in vivo, female Sprague Dawley rats; details: ovariectomized rats
Text: as §1, §2
Uterine Eosinomhil Peroxidase (EPO) Assay. Uteri were kept at 4° C. until time of enzymatic analysis. The uteri were then homogenized in 50 volumes of 50 mM Tris buffer (pH-8.0) containing 0.005% Triton X-100. Upon addition of 0.01% hydrogen peroxide and 10 mM O-phenylenediamine (final concentrations) in Tris buffer, increase in absorbance was monitored for one minute at 450 nm. The presence of eosinophils in the uterus is an indication of estrogenic activity of a compound. The maximal velocity of a 15 second interval was determined over the initial, linear portion of the reaction curve.
As is expressed in the below data, estrogenicity also was assessed by evaluating the response of eosinophil infiltration into the uterus.
as §5

[7] = Osteoporosis Test: body weight change (Table 2); type: in vivo; details: daily for 35 days, 6-month-old rats
Experimental: as §6

For `C#CC1(O)CCC2C3CCc4cc(O)ccc4C3CCC21C` (stereo not drawn) [EE2, 17α-ethynyl estradiol, reference compound], the “serum cholesterol, in words” value ([1]; oral, EE2 at 0.1 mg/kg/day) was “caused a decrease in serum cholesterol”, the “Femur (x-ray image) (% protect.)” value ([2]; 0.1 mg/kg oral) was 41.8% and 25.5% and the “bone density, in words” value [2] was “prevented this loss”. The “Uterine Wt. (% inc. vs. OVX)” value ([3]; 0.1 mg/kg oral) was 128.3% and 226.1%, the “uterine weight, in words” value ([4]; oral, EE2 at 0.1 mg/kg/day) was “uterine weight was substantially greater than the uterine weight of ovariectomized control animals” and the “Serum Chol. (% dec. vs. OVX)” value ([5]; 0.1 mg/kg oral) was 73.8% and 73.6%. For the same molecule, the “eosinophil infiltration into the uterus, in words” value [6] was “caused a substantial, expected increase in eosinophil infiltration”.
For `Cc1ccc(-c2ccc(O)cc2)c(-c2ccc(OCCN3CCCC3)cc2)n1` [Example 9, 2-[4-[2-(1-Pyrrolidinyl)ethoxy]phenyl]-3-(4-hydroxyphenyl)-6-methylpyridine], the inhibition in vivo at 10 mg/kg ([1]; Rattus norvegicus, po, 96 h, 10 mg/kg oral, daily for 4 days, read-out: Serum Cholesterol (% dec. vs. OVX)) was 49.2%, the inhibition in vivo at 25 mg/kg ([1]; Rattus norvegicus, po, 96 h, 25 mg/kg oral, daily for 4 days, read-out: Serum Cholesterol (% dec. vs. OVX)) was 58.5% and the “Body Wt. Change (% dec. vs. OVX)” value ([7]; 0.01 mg/kg oral) was -5%. The “Body Wt. Change (% dec. vs. OVX)” value ([7]; 0.1 mg/kg oral) was -8.2%, the “Body Wt. Change (% dec. vs. OVX)” value ([7]; 25 mg/kg oral) was 6.3% and the “Femur (x-ray image) (% protect.)” value ([2]; 0.01 mg/kg oral) was -11.5%. For the same molecule, the “Femur (x-ray image) (% protect.)” value ([2]; 0.1 mg/kg oral) was -16.4%, the “Femur (x-ray image) (% protect.)” value ([2]; 25 mg/kg oral) was 33.3% and the “bone density, in words” value [2] was “elevated mean bone density in a general, dose-related manner”. For the same molecule, the “Uterine Wt. (% inc. vs. OVX)” value ([3]; 0.01 mg/kg oral) was -3.5%, the “Uterine Wt. (% inc. vs. OVX)” value ([3]; 0.1 mg/kg oral) was -11% and the “Uterine Wt. (% inc. vs. OVX)” value ([3]; 25 mg/kg oral) was -6.8%. For the same molecule, the change in vivo at 10 mg/kg ([4]; Rattus norvegicus, po, 96 h, 10 mg/kg oral, daily for 4 days, read-out: Uterine Wt. (% inc. vs. OVX)) was 26.3%, the change in vivo at 25 mg/kg ([4]; Rattus norvegicus, po, 96 h, 25 mg/kg oral, daily for 4 days, read-out: Uterine Wt. (% inc. vs. OVX)) was 24.3% and the “Serum Chol. (% dec. vs. OVX)” value ([5]; 0.01 mg/kg oral) was 44.4%. For the same molecule, the “Serum Chol. (% dec. vs. OVX)” value ([5]; 0.1 mg/kg oral) was 33.6%, the “Serum Chol. (% dec. vs. OVX)” value ([5]; 1 mg/kg oral) was 35.4% and 54.2% and the “Serum Chol. (% dec. vs. OVX)” value ([5]; 10 mg/kg oral) was 35.4% and 42.2%. For the same molecule, the “Serum Chol. (% dec. vs. OVX)” value ([5]; 25 mg/kg oral) was 19.7%.
